These are literature values, as cited in patent US11077086B2, “Solid dosage form composition for buccal or sublingual administration of cannabinoids” (PHARMACEUTICAL PRODUCTIONS, INC., priority 2014, dated 2021).

Structures are written as SMILES.

In this series the test system is cannabinoid receptor.

On to `C=C(C)[C@@H]1CCC(C)=C[C@H]1c1c(O)cc(CCCCC)cc1O` [cannabidiol (CBD), cannabidiol], for which the “affinity for the cannabinoid receptor” value is reported as “do not have significant affinity”.
